How the values were obtained:
[1] = DRUGMATRIX: Glutamate, NMDA, Agonism radioligand binding (ligand: [3H] CGP-39653); format: cell membranes, Rattus norvegicus, Wistar, Cerebral cortex, Membrane; details: Not Active = under 50% inhibition at 10 µM
[2] = biological target: T1, Cholecystokinin receptor type A (Homo sapiens, UniProt P32238); format: cell membranes, Membrane; details: 1321-n1; also: in other assays of this panel Not Active means under 50% inhibition at 10 µM
T1 sequence (P32238 whole entry): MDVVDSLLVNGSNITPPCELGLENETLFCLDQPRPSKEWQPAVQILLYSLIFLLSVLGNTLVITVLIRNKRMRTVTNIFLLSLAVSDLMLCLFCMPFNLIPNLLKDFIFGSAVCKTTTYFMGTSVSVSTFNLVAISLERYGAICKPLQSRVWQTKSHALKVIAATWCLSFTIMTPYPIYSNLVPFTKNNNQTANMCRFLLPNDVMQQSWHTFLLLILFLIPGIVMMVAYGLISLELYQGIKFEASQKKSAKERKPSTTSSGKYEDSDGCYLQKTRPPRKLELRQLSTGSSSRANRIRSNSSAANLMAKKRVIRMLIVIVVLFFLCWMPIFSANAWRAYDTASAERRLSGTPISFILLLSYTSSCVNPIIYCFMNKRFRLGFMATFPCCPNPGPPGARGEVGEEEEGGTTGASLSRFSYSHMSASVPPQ

[3] = biological target: Histamine H2 receptor (Homo sapiens, UniProt P25021); format: cell membranes, CHO-K1, Membrane; details: cho-k1; also: in other assays of this panel Not Active means under 50% inhibition at 10 µM
[4] = biological target: T2, Glucocorticoid receptor (Homo sapiens, UniProt P04150); details: hela s3; also: in other assays of this panel Not Active means under 50% inhibition at 10 µM
T2 sequence (P04150 whole entry): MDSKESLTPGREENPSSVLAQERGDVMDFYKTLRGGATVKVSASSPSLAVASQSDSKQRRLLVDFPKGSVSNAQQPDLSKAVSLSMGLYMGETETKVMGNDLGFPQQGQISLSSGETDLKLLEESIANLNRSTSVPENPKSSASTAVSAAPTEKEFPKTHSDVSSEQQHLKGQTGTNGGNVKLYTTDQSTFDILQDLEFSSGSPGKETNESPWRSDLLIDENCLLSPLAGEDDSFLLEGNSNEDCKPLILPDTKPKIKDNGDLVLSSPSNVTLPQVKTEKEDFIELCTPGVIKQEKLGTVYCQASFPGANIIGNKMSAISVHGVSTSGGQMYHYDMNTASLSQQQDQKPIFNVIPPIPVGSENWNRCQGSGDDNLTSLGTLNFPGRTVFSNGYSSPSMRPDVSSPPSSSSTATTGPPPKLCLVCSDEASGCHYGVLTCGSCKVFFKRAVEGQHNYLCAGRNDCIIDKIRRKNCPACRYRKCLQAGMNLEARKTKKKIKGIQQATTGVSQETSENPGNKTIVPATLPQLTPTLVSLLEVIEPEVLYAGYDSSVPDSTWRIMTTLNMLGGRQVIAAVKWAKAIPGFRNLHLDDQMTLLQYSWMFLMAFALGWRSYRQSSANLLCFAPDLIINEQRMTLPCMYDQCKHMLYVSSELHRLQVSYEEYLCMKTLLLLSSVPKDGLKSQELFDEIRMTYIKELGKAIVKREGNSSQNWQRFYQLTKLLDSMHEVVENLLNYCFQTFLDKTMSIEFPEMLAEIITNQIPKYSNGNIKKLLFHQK

[5] = biological target: Mitogen-activated protein kinase 1 (Homo sapiens, UniProt P28482); assay: DRUGMATRIX: Protein Serine/Threonine Kinase, ERK2 enzyme inhibition (substrate: Myelin Basic Protein); set-up: species or system Escherichia coli; details: Not Active = under 50% inhibition at 10 µM
[6] = biological target: T3, Alpha-1D adrenergic receptor (Homo sapiens, UniProt P25100); format: cell membranes, HEK293, Membrane; details: hek293; also: in other assays of this panel Not Active means under 50% inhibition at 10 µM
T3 sequence (P25100 whole entry): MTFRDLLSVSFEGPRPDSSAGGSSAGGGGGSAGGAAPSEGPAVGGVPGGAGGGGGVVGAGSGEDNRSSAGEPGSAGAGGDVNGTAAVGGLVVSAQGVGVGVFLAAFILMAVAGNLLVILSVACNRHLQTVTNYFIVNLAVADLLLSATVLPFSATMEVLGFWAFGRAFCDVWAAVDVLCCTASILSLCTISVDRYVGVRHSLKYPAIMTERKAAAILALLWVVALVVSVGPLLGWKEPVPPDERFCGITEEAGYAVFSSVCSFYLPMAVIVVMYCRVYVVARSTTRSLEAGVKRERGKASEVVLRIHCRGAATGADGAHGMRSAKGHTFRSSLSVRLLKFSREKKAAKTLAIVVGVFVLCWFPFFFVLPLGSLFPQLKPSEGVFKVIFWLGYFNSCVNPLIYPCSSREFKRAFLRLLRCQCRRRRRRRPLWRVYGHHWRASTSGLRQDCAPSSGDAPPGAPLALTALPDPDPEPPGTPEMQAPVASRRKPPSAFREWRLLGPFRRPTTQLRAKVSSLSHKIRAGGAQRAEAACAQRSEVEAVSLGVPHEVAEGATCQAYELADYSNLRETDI

[7] = DRUGMATRIX: Tumor Necrosis Factor (TNF), Non-Selective radioligand binding (ligand: [125I] TNF-alpha); format: cell membranes, Membrane; details: u-937; Not Active = under 50% inhibition at 10 µM

Chain of Mitogen-activated protein kinase 1 (P28482 whole entry): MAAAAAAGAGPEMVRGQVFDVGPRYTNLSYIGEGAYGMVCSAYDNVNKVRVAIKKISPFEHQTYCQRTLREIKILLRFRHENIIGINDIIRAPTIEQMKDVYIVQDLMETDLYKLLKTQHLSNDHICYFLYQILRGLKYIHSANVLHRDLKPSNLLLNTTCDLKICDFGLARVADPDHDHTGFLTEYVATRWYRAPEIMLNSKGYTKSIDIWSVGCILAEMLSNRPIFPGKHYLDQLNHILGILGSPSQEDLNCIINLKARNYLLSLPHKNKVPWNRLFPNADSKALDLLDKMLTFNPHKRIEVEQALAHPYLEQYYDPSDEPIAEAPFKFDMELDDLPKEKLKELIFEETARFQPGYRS
Chain of Histamine H2 receptor (P25021 whole entry): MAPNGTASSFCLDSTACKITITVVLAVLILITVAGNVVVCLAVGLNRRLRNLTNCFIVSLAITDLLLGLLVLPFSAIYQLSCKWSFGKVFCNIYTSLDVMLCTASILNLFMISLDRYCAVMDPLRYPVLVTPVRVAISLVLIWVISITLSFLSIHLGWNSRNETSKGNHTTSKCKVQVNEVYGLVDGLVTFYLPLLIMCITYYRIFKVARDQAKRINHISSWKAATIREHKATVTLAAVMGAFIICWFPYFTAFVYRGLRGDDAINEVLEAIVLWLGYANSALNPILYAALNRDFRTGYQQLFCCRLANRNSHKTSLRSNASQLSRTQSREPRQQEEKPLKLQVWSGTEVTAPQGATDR

Cc1cn([C@H]2C[C@H](N=[N+]=[N-])[C@@H](CO)O2)c(=O)[nH]c1=O [ZIDOVUDINE]
Not Active: IC50 [1] | Ki [1] | IC50 [2] | IC50 [3] | IC50 [4] | IC50 [5] | IC50 [6] | IC50 [7] | Ki [7]

STANNOUS FLUORIDE
Not Active: IC50 [1] | Ki [1] | IC50 [2] | Ki [2] | IC50 [3] | Ki [3] | IC50 [4] | Ki [4] | IC50 [5] | Ki [5] | IC50 [6] | Ki [6] | IC50 [7] | Ki [7]

THIMEROSAL
Not Active: IC50 [1] | Ki [1] | IC50 [2] | Ki [2] | IC50 [3] | Ki [3] | IC50 [4] | Ki [4] | IC50 [5] | Ki [5] | IC50 [6] | Ki [6] | IC50 [7] | Ki [7]
